The term melting point denotes the temperature of the solid-liquid transition. Take `COC(=O)c1nc(-c2ccc(Cl)cc2)nc(NCc2ccco2)c1Cl`: the melting point lay within 132 to 134 °C.

The molecule `CN1CCCN(c2cc3ccccc3c(=O)[nH]2)CC1` showed a melting point of 171 to 172 °C.

Take `O=C(c1ccc(F)cc1)C1CCN(Cc2ccc3ccccc3c2)CC1`: the melting point was 131 to 134 °C.

`COC(=O)c1cccc2nc(Cl)n(Cc3ccc(-c4ccccc4C#N)cc3)c12` showed a melting point of 154 to 157 °C.

The molecule `CCOCCOc1cc(C(F)(F)F)cc(N(N)C(=CNS(C)(=O)=O)[N+](=O)[O-])n1` returned a melting point of 153 °C.

Molecule `C[C@@H](N(CC(=O)O)C(=O)c1ccc(OCC(F)(F)C(F)F)cc1)[C@](O)(Cn1cncn1)c1ccc(Cl)cc1Cl` (relative stereo) registered a melting point of 192 to 193 °C.

The molecule `O=C(CCC1(C(=O)O)CCCC1)OCc1ccc([N+](=O)[O-])cc1` gave a melting point of 78 to 80 °C.

In turn, `CON(C)C(=O)c1ccc(F)cc1` showed a melting point of 9 °C.

`Nc1nc(-c2ccc(NC(=O)CN(Cc3ccccc3)C(=O)C3CCCCC3)cc2)cs1`: the melting point lay within 214 to 216 °C.

For `CC(C(=O)O)c1ccc(CC2CCCCC2=O)cc1` (centres undefined), the melting point is 84 to 86 °C.

Molecule `CN(C)C(=O)CN1CCc2ccc([N+](=O)[O-])cc2CC1` came in with a melting point of 94 to 96 °C.

As to `O=C(Nc1ccc(-n2nc(C(F)(F)F)cc2C(F)(F)F)cc1-n1nc(C(F)(F)F)cc1C(F)(F)F)c1ccc(F)cc1F`, the melting point is 114 to 115 °C.

`O=C(c1ccc(SCCO)c([N+](=O)[O-])c1)c1ccc(SCCO)c([N+](=O)[O-])c1` yielded a melting point of 193 to 197 °C.

Molecule `O=S(=O)(Nc1cc(Br)c(O)c2ccccc12)c1cccs1` returned a melting point of 128 to 130 °C.

With `CC1(N2C(=O)c3ccccc3S2(=O)=O)CCCNC1=O` (centres undefined), the melting point was in the range of 211 to 215 °C.

For the molecule `CC(C)(C)c1cc(CCC2(CCc3cc(C(C)(C)C)c(O)c(C(C)(C)C)c3)NC(=O)NC2=O)cc(C(C)(C)C)c1O`, the melting point lay in the range of 218 to 220 °C.

The molecule `CCCCCNC1=CC(=O)C(=O)c2ccccc21` yielded a melting point of more than 215 °C.

Regarding `CCOC(=O)c1cn(C)c2cnc3cc(N4CCCC4)c(F)cc3c2c1=O`, the melting point worked out at 270 °C.

`O=Cc1cccc2nc(-c3ccccc3)oc12`: the melting point is 107 °C.

Take `CNC(=O)c1nc(C)n2c1CN=C(c1ccccc1)c1cc(Cl)ccc1-2`: the melting point fell in the range of 260 to 263 °C.

In the case of `COC(=O)c1ccc(N=Cc2ccccc2)cn1`, the melting point fell in the range of 84 to 89 °C.

Turning to `N=C(N)Nc1nc(-c2csc(N)n2)cs1`, the melting point came to 274 °C.

For `COC(=O)[C@@]12CN(Cc3ccccc3)C[C@@H]1[C@@](O)(c1ccc(C)cc1)CC[C@H]2c1ccccc1` (racemic), the melting point worked out at 164 °C.

For `CCOC(=O)c1cnn(-c2c(F)c(F)c(C(F)(F)F)c(F)c2F)c1N`, the melting point fell in the range of 166 to 168 °C.

`CCc1nc(NC2CCCC2)c(-c2ccccc2)c(NC2CCCC2)n1` gave a melting point of 70 to 71 °C.

In turn, `CC(C)(C)c1cc(C(=O)Nc2ccc(CC(=O)O)cc2)cc(C(C)(C)C)c1O` yielded a melting point of 253 to 254 °C.

As for `Cn1c(CCCO)nc2ccccc21`, the melting point came to 107 °C.

With `CC(=O)c1cnc(Br)c(C)c1`, the melting point lay within 114 to 115 °C.

`Nc1ccccc1N1CCN(CCCCn2c(=O)[nH]c(=O)c3ccccc32)CC1` registered a melting point of 121 °C.

Take `O=C(Nc1ccncc1)OC1CN2CCC1CC2` (centres undefined): the melting point fell in the range of 149 to 151 °C.

Regarding `CC(=O)OCc1cc2c(C(O)CN(Cc3ccccc3)C(C)(C)C)ccc(OCc3ccccc3)c2[nH]1` (centres undefined), the melting point lay within 133 to 134 °C.

On to `COc1ccc(-c2cc3cc(F)c(F)cc3[nH]2)cc1NCc1cccc(C#N)c1`, for which the melting point was 154 to 155 °C.

`O=C(O)c1cccn2cc(-c3ccccc3)nc12`: the melting point worked out at 226 °C.

With `CC(C)(C)OC(=O)NC1CCN(Cc2ccccc2)C1` (centres undefined), the melting point is 114 to 115 °C.
